Measured values published in patent US11555031B2, “Compounds and methods for regulating insulin secretion” (The Broad Institute, Inc., priority 2017, dated 2023).
Entries after “also recorded” stand apart in the source; their conditions may differ.

Each compound was assayed on INS-1E cells (assay: Luciferase Insulin Secretion Assay (proinsulin-Gaussia luciferase reporter)). Details: INS-1E cells; 2.8 mM vs 16.7 mM glucose.
Type: cell-based, rat
Set-up: key to Activity: Active: a compound is identified as active if the compound has a Z-score greater than 3 in the presence of 16.7 mM glucose; Partial activity indicates that the compound does promote insulin secretion (at lower Z-scores); Lost Glucose Dependence: In some cases, insulin secretion was promoted at both measured insulin concentrations
Text: A high-throughput luminescent insulin secretion assay was developed and performed to identify compounds that amplified insulin secretion only in the presence of a permissive glucose environment (FIG. 3). The assay used in compound screening is described in International Patent Publication No. WO2013070796A3, PCT/US2012/063982, and in Burns et al., High-Throughput Luminescent Reporter of Insulin Secretion for Discovering Regulators of Pancreatic Beta-Cell Function. Cell Metab. 2015 Jan. 6; 21(1):126-37.
The assay is a luminescent insulin secretion assay created by inserting Gaussia luciferase within the C-peptide portion of the insulin prohormone. Gaussia luciferase was chosen because of its small size and bright luciferase signal. To ensure full activity of the luciferase, a version was used that was codon-optimized for expression in mammalian cells. The enzyme was flanked with additional cleavage sites for prohormone convertase 2 (PC2), such that no extra amino acids should be present on the ends of the enzyme after processing within the vesicles (FIG. 4). Rat (INS-1E; Merglen et al., 2004) beta-cell lines stably expressing the reporter construct were generated. Assays using this cell type are referred to herein as Luciferase Insulin Secretion Assay.
A search for glucose-dependent insulin secretagogues was conducting by screening 384,216 compounds at a single concentration (10 μM) in duplicate using the Luciferase Insulin Secretion Assay, to identify those that increase insulin secretion only in the presence of high glucose (11.1 mM) (FIG. 6). These assays were performed in 1536 well format. A Z′ factor of 0.35 was obtained with respect the positive control (300 μM IBMX). The cutoff value selected was 45% activation, which was 3-4 standard deviations above background (solid uppermost line; FIG. 6).
For standard secretion assays, INS-1E cells were plated in 96-well format, preincubated for 1 hr in Krebs Ringer Buffer (KRB) with 2.8 mM glucose, and then stimulated for 1 hr in fresh KRB containing varying amounts of glucose and compounds. Insulin or C-peptide concentration was determined using an ELISA (Mercodia), following the manufacturer's protocol. Luciferase activity was determined from the same samples by adding the coelenterazine substrate to the supernatant to a final concentration of 10 μM and reading on a standard plate reader (BioTek).
INS-1E cells were expanded to 80% confluence in their growth medium, washed once in PBS, and preincubated for 1 hr at 37° C. in KRB with 2.8 mM glucose. Cells were then dissociated, spun at 300×g for 2 min, resuspended in fresh KRB without glucose, and filtered through 40 μm mesh (Becton Dickinson). Next, the cells were counted and diluted in KRB to 1×10^6 cells per ml, and glucose was added as required for each experiment. Cells were then seeded in 384-well format, 3×10^4 cells in 30 μl per well, using a Multidrop Combi device (Thermo Scientific). Compounds were pinned into each well using a Vario robot (CyBio) to a final concentration of 30 μM, and the plates were then incubated for 2 hr at 37° C. For assays involving a transfer step, the plates were then centrifuged at 300×g for 2 min, and 20 μl of supernatant was transferred to a new 384-well plate. Coelenterazine substrate was then added to a final concentration of 10 μM, and luciferase activity was determined using a standard plate reader (BioTek).

How did the “glucose-dependent (glucose-stimulated) insulin secretion, luciferase reporter” value (from here on “glucose-dependent”) turn out when `COc1ccccc1S(=O)(=O)Nc1ccc2c(c1)CN(C)C(=O)N2` [PF1, reference compound] was run?
The value was “neither of the known bromodomain inhibitors (PF1 or CBP30) affect secretion to the extent of Compound 8”.

How did the “glucose-dependent” value turn out when `Cc1ccccc1NC(=O)c1ccc(OCc2c(C)noc2C)cc1` [Compound 17] was run?
The value was “some positive effect on secretion”.

Which “glucose-dependent” value does the source give for `Cc1sc2c(c1C)C(c1ccc(Cl)cc1)=N[C@@H](CC(=O)OC(C)(C)C)c1nnc(C)n1-2` [JQ1, reference compound] here?
Its value is “None of the compounds assayed increased glucose-dependent insulin secretion; also recorded: No increase in secretion; also recorded: small effect”.

With `Cc1cccc(C)c1NC(=O)c1ccc(OCc2c(C)noc2C)cc1` [Compound 16] as the compound, how does the “glucose-dependent” value read?
Its value is “some positive effect on secretion”.

For `COc1ccc(CCc2nc3cc(-c4c(C)noc4C)ccc3n2C[C@H](C)N2CCOCC2)cc1Cl` [CBP30, reference compound], which “glucose-dependent” value is on record?
The value was “neither of the known bromodomain inhibitors (PF1 or CBP30) affect secretion to the extent of Compound 8”.

Which “glucose-dependent” value does the source give for `COc1ccccc1S(=O)(=O)Nc1ccc2c(c1)CN(C)C(=O)N2` [PF-1, reference compound] here?
Its value is “None of the compounds assayed increased glucose-dependent insulin secretion”.

Same assay, conditions: INS-1E cells; high compound concentrations

How did the “effect on glucose-stimulated insulin secretion at high concentrations” value turn out when `Cc1sc2c(c1C)C(c1ccc(Cl)cc1)=N[C@@H](CC(=O)OC(C)(C)C)c1nnc(C)n1-2` [JQ1, reference compound] was run?
Its value is “inhibitory effects; also recorded: decrease in glucose-stimulated secretion”.

`COc1ccccc1S(=O)(=O)Nc1ccc2c(c1)CN(C)C(=O)N2` [PF-1, reference compound] was tested. Which “effect on glucose-stimulated insulin secretion at high concentrations” value did it give?
Its value is “inhibitory effects”.

Same assay, conditions: glucose dependence of insulin secretion; Z-score in the presence of 16.7 mM glucose

With `Cc1cccc(NC(=O)c2ccc(OCc3ccnnc3)cc2)c1C` [Compound 59, N-(2,3-Dimethyl-phenyl)-4-(pyridazin-4-ylmethoxy)-benzamide] as the compound, how does the Activity read?
The Activity was “Inactive”.

For `Cc1cccc(-c2nc3cc(NCc4c(C)noc4C)ccc3[nH]2)c1C` [Compound 34], which Activity is on record?
The Activity was “Inactive”.

`Cc1ccc2nc(-c3ccc(NCc4c(C)noc4C)cc3)[nH]c2c1C` [Compound 36] was tested. Which Activity did it give?
Its Activity is “Inactive”.

How did the Activity turn out when `Cc1cccc(NC(=O)c2ccc(OCc3c(C)noc3C)cc2O)c1C` [Compound 46] was run?
The Activity was “Inactive”.

With `Cc1ccncc1COc1ccc(C(=O)Nc2cccc(C)c2C)cc1` [Compound 64, N-(2,3-Dimethyl-phenyl)-4-(4-methyl-pyridin-3-ylmethoxy)-benzamide] as the compound, how does the Activity read?
The Activity was “Inactive”.

How did the Activity turn out when `Cc1ccccc1NC(=O)c1ccc(OCc2c(C)noc2C)cc1` [Compound 76] was run?
The Activity was “Inactive”.

With `Cc1cccc(NC(=O)c2ccc(OCc3cn(C)nc3C)cc2)c1C` [Compound 53] as the compound, how does the Activity read?
Its Activity is “Inactive”.

For `Cc1cccc(NS(=O)(=O)c2ccc(NCc3c(C)noc3C)cc2)c1C` [Compound 32], which Activity is on record?
The Activity was “Inactive”.

How did the Activity turn out when `Cc1cccc(-c2noc(-c3ccc(NCc4c(C)noc4C)cc3)n2)c1C` [Compound 35] was run?
Its Activity is “Inactive”.

For `Cc1noc(C)c1COc1ccc(C(=O)N2CCc3ccccc32)cc1` [Compound 79], which Activity is on record?
Its Activity is “Inactive”.

`Cc1cccc(NC(=O)c2ccc(OCc3c(C)noc3C)cc2)c1` [Compound 75] was tested. Which Activity did it give?
Its Activity is “Inactive”.

With `Cc1cccc(NC(=O)c2ccc(/C=C\c3c(C)noc3C)cc2)c1C` [Compound 55 (cis)] as the compound, how does the Activity read?
Its Activity is “Inactive”.

For `Cc1cc(NCc2c(C)noc2C)ccc1-c1cnc(-c2cccc(C)c2C)[nH]1` [Compound 31], which Activity is on record?
The Activity was “Inactive”.

Which Activity does the source give for `Cc1cccc(NC(=O)c2ccc(OCc3c(C)ccnc3C)cc2)c1C` [Compound 50, N-(2,3-Dimethyl-phenyl)-4-(2,4-dimethyl-pyridin-3-ylmethoxy)-benzamide] here?
The Activity was “Inactive”.

For `Cc1cccc(NS(=O)(=O)c2ccc(OCc3c(C)noc3C)cc2)c1C` [Compound 97, 4-(3,5-Dimethyl-isoxazol-4-ylmethoxy)-N-(2,3-dimethyl-phenyl)-benzenesulfonamide], which Activity is on record?
The Activity was “Inactive”.

With `Cc1noc(C)c1COc1ccc(C(=O)N2CCCc3ccccc32)cc1` [Compound 80] as the compound, how does the Activity read?
Its Activity is “Inactive”.

How did the Activity turn out when `Cc1cccc(NC(=O)c2ccc(N(C)Cc3c(C)noc3C)cc2)c1C` [Compound 56] was run?
The Activity was “Inactive”.

For `Cc1cccc(NC(=O)c2ccc(/C=C/c3c(C)noc3C)cc2)c1C` [Compound 55], which Activity is on record?
The Activity was “Partial activity, Lost Glucose Dependence”.

How did the Activity turn out when `Cc1cccc(NC(=O)c2ccc(OCc3c(C)nn(C)c3C)cc2)c1C` [Compound 54] was run?
Its Activity is “Inactive”.

How did the Activity turn out when `CC(=O)NCc1ccccc1NC(=O)c1ccc(OCc2c(C)noc2C)cc1` [Compound 90, N-[2-(Acetylamino-methyl)-phenyl]-4-(3,5-dimethyl-isoxazol-4-ylmethoxy)-benzamide] was run?
The Activity was “Inactive”.

Which Activity does the source give for `CC1=CC(=O)Cc2cc(COc3ccc(C(=O)Nc4cccc(C)c4C)cc3)ccc21` [Compound 51] here?
Its Activity is “Partial activity, Lost Glucose Dependence”.

How did the Activity turn out when `Cc1cccc(-c2cc(-c3ccc(NCc4c(C)noc4C)cc3)[nH]n2)c1C` [Compound 28] was run?
Its Activity is “Inactive”.

How did the Activity turn out when `Cc1cccc(NC(=O)c2ccc(OCc3cnccc3Cl)cc2)c1C` [Compound 66, 4-(4-Chloro-pyridin-3-ylmethoxy)-N-(2,3-dimethyl-phenyl)-benzamide] was run?
Its Activity is “Inactive”.

Which Activity does the source give for `Cc1cccc(NC(=O)c2ccc(OCc3c(C)noc3C)cc2)c1Cl` [Compound 78, N-(2-Chloro-3-methyl-phenyl)-4-(3,5-dimethyl-isoxazol-4-ylmethoxy)-benzamide] here?
The Activity was “Inactive”.

`Cc1cccc(-c2cc(-c3ccc(OCc4c(C)noc4C)cc3)n[nH]2)c1C` [Compound 95] was tested. Which Activity did it give?
Its Activity is “Inactive”.

For `Cc1noc(C)c1COc1ccc(C(=O)Nc2cccc3c2CCC3)cc1` [Compound 81, 4-(3,5-Dimethyl-isoxazol-4-ylmethoxy)-N-indan-4-yl-benzamide], which Activity is on record?
Its Activity is “Inactive”.

How did the Activity turn out when `Cc1cccc(C)c1NC(=O)c1ccc(OCc2c(C)noc2C)cc1` [Compound 77] was run?
Its Activity is “Inactive”.

How did the Activity turn out when `Cc1cccc(NC(=O)c2ccc(OC(C)c3c(C)noc3C)cc2)c1C` (centres unmarked) [Compound 52] was run?
Its Activity is “Inactive”.

How did the Activity turn out when `Cc1cccc(-c2nc(C)c(-c3ccc(NCc4c(C)noc4C)cc3)[nH]2)c1C` [Compound 30] was run?
Its Activity is “Inactive”.

Which Activity does the source give for `Cc1noc(C)c1COc1ccc(C(=O)NC2CCCO2)cc1` (centres unmarked) [Compound 86] here?
The Activity was “Inactive”.

How did the Activity turn out when `Cc1noc(C)c1COc1ccc(C(=O)Nc2cccc(Cl)c2C)cc1` [Compound 72, N-(3-Chloro-2-methyl-phenyl)-4-(3,5-dimethyl-isoxazol-4-ylmethoxy)-benzamide] was run?
Its Activity is “Active”.

Which Activity does the source give for `Cc1cc(OCc2c(C)noc2C)ccc1-c1cnc(-c2cccc(C)c2C)[nH]1` [Compound 93] here?
The Activity was “Inactive”.

`Cc1cccc(-c2ncc(-c3ccc(NCc4c(C)noc4C)cc3)[nH]2)c1C` [Compound 29] was tested. Which Activity did it give?
Its Activity is “Inactive”.

For `Cc1cccc(NC(=O)c2ccc(OCc3ccccn3)cc2)c1C` [Compound 62], which Activity is on record?
The Activity was “Inactive”.

With `COCc1ccccc1NC(=O)c1ccc(OCc2c(C)noc2C)cc1` [Compound 96, 4-(3,5-Dimethyl-isoxazol-4-ylmethoxy)-N-(2-methoxymethyl-phenyl)-benzamide] as the compound, how does the Activity read?
Its Activity is “Inactive”.

`Cc1cccc(-c2cnc(-c3ccc(NCc4c(C)noc4C)cc3)[nH]2)c1C` [Compound 27] was tested. Which Activity did it give?
The Activity was “Inactive”.

How did the Activity turn out when `Cc1cccc(NC(=O)c2ccc(OCc3cccnc3Cl)cc2)c1C` [Compound 67, 4-(2-Chloro-pyridin-3-ylmethoxy)-N-(2,3-dimethyl-phenyl)-benzamide] was run?
Its Activity is “Inactive”.

How did the Activity turn out when `Cc1cccc(NC(=O)c2ccc(OCc3c(C)noc3C)cc2)c1C#N` [Compound 69, N-(2-Cyano-3-methyl-phenyl)-4-(3,5-dimethyl-isoxazol-4-ylmethoxy)-benzamide] was run?
Its Activity is “Active”.

How did the Activity turn out when `Cc1cccc(NC(=O)c2ccc(CN(C)c3c(C)noc3C)cc2)c1C` [Compound 58, 4-{[(3,5-Dimethyl-isoxazol-4-yl)-methyl-amino]-methyl}-N-(2,3-dimethyl-phenyl)-benzamide] was run?
Its Activity is “Inactive”.
